Assays:
[1] = relative to sucrose; cited from earlier work
[2] = molecular target: T1, trehalose receptor (G protein α-subunits and T1R3) (Mus musculus, UniProt Q925D8, I706N); assay: Quantitation of trehalose using trehalose receptor, 96-well microplate fluorescence assay; type: cell-based; details: for Fluorescence intensity (integral value): 0.1 ml/well added to 100 µl cell suspension, ex 494 nm, em 516 nm
T1 construct: expressed in transfected cells; host or cells: 293 cells, RCB 1637 (human embryonic kidney)
T1 sequence (Q925D8 21-858 I706N): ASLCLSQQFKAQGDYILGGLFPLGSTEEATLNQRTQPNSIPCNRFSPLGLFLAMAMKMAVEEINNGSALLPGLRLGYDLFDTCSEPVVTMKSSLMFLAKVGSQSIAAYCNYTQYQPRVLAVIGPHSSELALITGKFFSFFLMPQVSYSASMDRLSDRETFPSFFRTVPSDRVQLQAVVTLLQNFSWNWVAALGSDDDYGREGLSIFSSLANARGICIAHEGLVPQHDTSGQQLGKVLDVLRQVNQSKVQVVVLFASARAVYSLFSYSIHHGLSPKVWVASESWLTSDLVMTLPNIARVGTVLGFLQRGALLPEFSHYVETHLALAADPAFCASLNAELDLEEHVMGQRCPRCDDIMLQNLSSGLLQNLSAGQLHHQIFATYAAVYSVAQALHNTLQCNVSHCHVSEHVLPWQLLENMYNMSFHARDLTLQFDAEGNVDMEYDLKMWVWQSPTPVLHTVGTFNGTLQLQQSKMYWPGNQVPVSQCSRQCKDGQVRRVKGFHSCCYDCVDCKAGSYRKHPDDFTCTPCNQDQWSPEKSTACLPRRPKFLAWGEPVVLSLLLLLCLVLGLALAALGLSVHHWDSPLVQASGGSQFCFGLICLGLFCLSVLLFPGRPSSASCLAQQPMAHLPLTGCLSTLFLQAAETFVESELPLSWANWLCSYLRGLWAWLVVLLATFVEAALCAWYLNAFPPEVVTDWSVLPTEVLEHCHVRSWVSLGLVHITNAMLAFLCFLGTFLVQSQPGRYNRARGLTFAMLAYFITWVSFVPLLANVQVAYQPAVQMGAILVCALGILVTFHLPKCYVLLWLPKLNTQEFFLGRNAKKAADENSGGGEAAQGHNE
Procedure: The captioned reactivity test was conducted according to a conventional intracellular calcium ion assay: 293 Cells prepared in Example 3, capable of coexpressing the G protein α-subunits and the sweet taste receptor(s), were cultured in a plastic petri dish for cell culture until reaching its confluent phase. Thereafter, the cells were detached from the inner surface of the petri dish with a 0.05% (v/v) trypsin solution and a 0.53 mM EDTA solution, suspended in D-MEM supplemented with 10% (v/v) fetal calf serum to give a cell density of 1×10^6 cells/ml, and allowed to intake “FLUO-4. AM”, a reagent for detecting intracellular calcium ion commercialized by Molecular Probes Inc., Ore., USA, by adding to the cell suspension to give a final concentration of 2 μM and incubating the cells at 37 ° C. for 30 to 90 min. The resulting cells were washed with a buffer for detecting calcium ion, which contained 10 mM HEPES (pH 7.4), 130 mM sodium chloride, 5.4 mM potassium chloride, 2 mM calcium chloride, 1 mM magnesium chloride, 5.5 mM D-glucose, 0.1% (v/v) calf serum albumin, and 1 mM sodium pyruvate to remove the reagent remained extracellularly; suspended in a fresh preparation of the same buffer to give a cell density of 2.67 ×10^7 cells/ml; filtered with a membrane with a pore size of 100 μm mesh; and allowed to stand at 25° C. for 30 min. Two milliliters of the resultant cell suspension was injected into a glass cuvette, commercialized by Hitachi, Ltd., Tokyo, Japan, and analyzed on “HITACHI 650-40”, a fluorescence spectrophotometer commercialized by Hitachi, Ltd., Tokyo, Japan.
One hundred microliter aliquots of the cell suspension in Example 4 were placed in commercially available 96-well microplates, followed by placing 0.1 ml/well of any of trehalose solutions with different concentrations of 1, 2, 5, 10, 20, 50, 100, 200, 500, 1,000, and 2,000 mM, prepared with trehalose and the same buffer for calcium ion assay as used in Example 4; and assayed on “FLUOROSCAN ASCENT W/DF”, an automatic fluorescence spectrophotometer for multi-plates, Dainippon Pharmaceutical Co., Ltd., Tokyo, Japan, at an excitation wavelength of 494 nm and a fluorescence wavelength of 516 nm, followed by calculating the integral values for the detected fluorescence intensities.

- Concentration at which trehalose is detectable ([2]; trehalose receptor cells, fluorescence assay of Table 5): ≥ 5 mM
- Fluorescence intensity (integral value) ([2]; trehalose solution 1 mM): 0.2
- Fluorescence intensity (integral value) ([2]; trehalose solution 2 mM): 0.5
- Fluorescence intensity (integral value) ([2]; trehalose solution 5 mM): 10
- Fluorescence intensity (integral value) ([2]; trehalose solution 10 mM): 19
- Fluorescence intensity (integral value) ([2]; trehalose solution 20 mM): 29
- Fluorescence intensity (integral value) ([2]; trehalose solution 50 mM): 45
- Fluorescence intensity (integral value) ([2]; trehalose solution 100 mM): 82
- Fluorescence intensity (integral value) ([2]; trehalose solution 200 mM): 159
- Fluorescence intensity (integral value) ([2]; trehalose solution 500 mM): 421
- Fluorescence intensity (integral value) ([2]; trehalose solution 1,000 mM): 670
- Fluorescence intensity (integral value) ([2]; trehalose solution 2,000 mM): 720
Compound: OC[C@H]1O[C@H](O[C@H]2O[C@H](CO)[C@@H](O)[C@H](O)[C@H]2O)[C@H](O)[C@@H](O)[C@@H]1O [Trehalose]
- Sweetening power [1]: 45%
